Common to all, as to assay: NCI 5-dose assay
Assay type in all cases: cell-based

Assay [1] concerns HOP-92. To be noted: Homo sapiens; HOP-92, Non-small cell lung cancer. The method, then:
(§1) The synthesized dichlorobenzimidazoles 10a–p were assayed for their influence on divers cancer cell lines according to the method presented in the Additional file A.
(§2) 5. Screening of cytotoxic activity against a panel of sixty human tumor cell lines
(§3) The selected compounds by NCI were evaluated for their anticancer activity in a two-stage process. First, these compounds were screened against the full NCI 60 cell lines panel at a single high dose of 10 µM. Then, the output from the single dose screen is reported as a mean graph. […]
(§4) at five different minimal concentrations.
(§5) Assay protocol. The human tumor cell lines of the cancer screening panel are grown in RPMI 1640 medium containing 5% fetal bovine serum and 2 mM L-glutamine. For a typical screening experiment, cells are inoculated into 96 well microtiter plates in 100 µL at plating densities ranging from 5000 to 40,000 cells/well depending on the doubling time of individual cell lines. After cell inoculation, the microtiter plates are incubated at 37 °C, 5% CO 2, 95% air and 100% relative humidity for 24 h prior to addition of the experimental drugs.
(§6) After 24 h, two plates of each cell line are fixed in situ with TCA, to represent a measurement of the cell population for each cell line at the time of drug addition (Tz). The experimental drugs are solubilized in dimethyl sulfoxide at 400-fold the desired final maximum test concentration and stored frozen prior to use. At the time of drug addition, an aliquot of frozen concentrate is thawed and diluted to twice the desired final maximum test concentration with complete medium containing 50 µg/mL gentamicin. Additional four, 10-fold or ½ log serial dilutions are made to provide a total of five drug concentrations plus control.
(§7) Aliquots of […] of these different drug dilutions are added to the appropriate microtiter wells already containing […] of medium, resulting in the required final drug concentrations.
(§8) Following drug addition, the plates are incubated for an additional 48 h at 37 °C, 5% CO 2, 95% air, and 100% relative humidity. For adherent cells, the assay is terminated by the addition of cold TCA.
(§9) Cells are fixed in situ by the gentle addition of 50 µL of cold 50% (w/v) TCA (final concentration, 10% TCA) and incubated for 60 min at 4 °C. The supernatant is discarded, and the plates are washed five times with tap water and air dried. Sulforhodamine B (SRB) solution ([…]) at 0.4% (w/v) in 1% acetic acid is added to each well, and plates are incubated for 10 min at room temperature. After staining, unbound dye is removed by washing five times with 1% acetic acid and the plates are air dried. Bound stain is subsequently solubilized with 10 mM trizma base, and the absorbance is read on an automated plate reader at a wavelength of 515 nm. For suspension cells, the methodology is […]
(§10) the same except that the assay is terminated by fixing settled cells at the bottom of the wells by gently adding 50 µl of 80% TCA (final concentration, 16% TCA). Using the seven absorbance measurements [time zero, (Tz), control growth, (C), and test growth in the presence of drug at the five concentration levels (Ti)], the percentage growth is calculated at each of the drug concentrations […]
(§11) Percentage growth inhibition is calculated as: [(Ti Tz)/(C–Tz)] x 100 for concentrations for which Ti>/=Tz and [(Ti-Tz)/Tz] x 100 for concentrations for which Ti < Tz.
(§12) Three dose response parameters are calculated for each experimental agent. Growth […]
(§13) concentration resulting in a 50% reduction in the net protein increase (as measured by SRB staining) in control cells during the drug incubation. The drug concentration resulting in total growth inhibition (TGI) is calculated from Ti = Tz. […]
(§14) reduction in the measured protein at the end of the drug treatment as compared to that at the beginning) indicating a net loss of cells following treatment is calculated from [(Ti–Tz)/Tz] x 100 =
(§15) _50. Values are calculated for each of these three parameters if the level of activity is reached; […]

Assay [2] concerns RPMI-8226. The following applies: Homo sapiens; RPMI-8226, Leukemia. On the procedure: as §1, §2, §3, §4, §5, §6, §7, §8, §9, §10, §11, §12, §13, §14, §15
Assay [3] concerns SF-295. To be noted: Homo sapiens; SF-295, CNS cancer. The method, then:
as §1, §2, §3, §4, §5, §6, §7, §8, §9, §10, §11, §12, §13, §14, §15

In assay [4] the test system is OVCAR-4. The following applies: Homo sapiens; OVCAR-4, Ovarian cancer. On the procedure: as §1, §2, §3, §4, §5, §6, §7, §8, §9, §10, §11, §12, §13, §14, §15
The test system of assay [5] is UO-31. To be noted: Homo sapiens; UO-31, Renal cancer. On the procedure: as §1, §2, §3, §4, §5, §6, §7, §8, §9, §10, §11, §12, §13, §14, §15
Assay [6] relates to T-47D. The following applies: Homo sapiens, T47D, Breast cancer. On the procedure: as §1, §2, §3, §4, §5, §6, §7, §8, §9, §10, §11, §12, §13, §14, §15
The subject of assay [7] is SW-620. To be noted: Homo sapiens; SW-620, Colon cancer. On the procedure: as §1, §2, §3, §4, §5, §6, §7, §8, §9, §10, §11, §12, §13, §14, §15
The test system of assay [8] is NCI-H522. To be noted: Homo sapiens; NCI-H522, Non-small cell lung cancer. On the procedure: as §1, §2, §3, §4, §5, §6, §7, §8, §9, §10, §11, §12, §13, §14, §15
Assay [9] concerns HOP-62. The following applies: Homo sapiens; HOP-62, Non-small cell lung cancer. On the procedure: as §1, §2, §3, §4, §5, §6, §7, §8, §9, §10, §11, §12, §13, §14, §15
The subject of assay [10] is SK-MEL-5. To be noted: Homo sapiens; SK-MEL-5, Melanoma. On the procedure: as §1, §2, §3, §4, §5, §6, §7, §8, §9, §10, §11, §12, §13, §14, §15
For assay [11], the system named is MCF7. The following applies: Homo sapiens; MCF7, Breast cancer. On the procedure:
as §1, §2, §3, §4, §5, §6, §7, §8, §9, §10, §11, §12, §13, §14, §15

The test system of assay [12] is SF-539. The following applies: Homo sapiens; SF-539, CNS cancer. On the procedure:
as §1, §2, §3, §4, §5, §6, §7, §8, §9, §10, §11, §12, §13, §14, §15

For assay [13], the system named is UACC-257. To be noted: Homo sapiens; UACC-257, Melanoma. The method, then: as §1, §2, §3, §4, §5, §6, §7, §8, §9, §10, §11, §12, §13, §14, §15
Assay [14] has as its system SNB-75. To be noted: Homo sapiens; SNB-75, CNS cancer. The method, then: as §1, §2, §3, §4, §5, §6, §7, §8, §9, §10, §11, §12, §13, §14, §15
Assay [15] concerns MDA-MB-231/ATCC. To be noted: Homo sapiens, Breast cancer. On the procedure: as §1, §2, §3, §4, §5, §6, §7, §8, §9, §10, §11, §12, §13, §14, §15
For assay [16], the system named is A498. To be noted: Homo sapiens; A498, Renal cancer. On the procedure:
as §1, §2, §3, §4, §5, §6, §7, §8, §9, §10, §11, §12, §13, §14, §15

For assay [17], the system named is M14. The following applies: Homo sapiens; M14, Melanoma. On the procedure: as §1, §2, §3, §4, §5, §6, §7, §8, §9, §10, §11, §12, §13, §14, §15
The test system of assay [18] is BT-549. To be noted: Homo sapiens; BT-549, Breast cancer. The method, then: as §1, §2, §3, §4, §5, §6, §7, §8, §9, §10, §11, §12, §13, §14, §15
Assay [19] has as its system PC-3. The following applies: Homo sapiens; PC-3, Prostate cancer. The method, then:
as §1, §2, §3, §4, §5, §6, §7, §8, §9, §10, §11, §12, §13, §14, §15

Assay [20] has as its system SK-OV-3. To be noted: Homo sapiens; SK-OV-3, Ovarian cancer. The method, then:
as §1, §2, §3, §4, §5, §6, §7, §8, §9, §10, §11, §12, §13, §14, §15

Assay [21] deals with CAKI-1. To be noted: Homo sapiens; CAKI-1, Renal cancer. On the procedure:
as §1, §2, §3, §4, §5, §6, §7, §8, §9, §10, §11, §12, §13, §14, §15

Assay [22] concerns NCI-H23. To be noted: Homo sapiens; NCI-H23, Non-small cell lung cancer. The method, then:
as §1, §2, §3, §4, §5, §6, §7, §8, §9, §10, §11, §12, §13, §14, §15

Three compounds from publication PMC11844072, “Novel 5,6-dichlorobenzimidazole derivatives as dual BRAFWT and BRAFV600E inhibitors: design, synthesis, anti-cancer activity and molecular dynamics simulations” (BMC Chemistry, 2025) can be followed below.

The GI50 is the concentration giving 50% growth inhibition. High values mean lower sensitivity of the cells, low ones greater sensitivity of the cells. On to `COC(=O)COc1ccc(C=NNC(=O)Cn2c(-c3ccc(OC)cc3)nc3cc(Cl)c(Cl)cc32)cc1` [Compound 10h, Methyl-2-(4-((2-(2-(5,6-dichloro-2-(4-methoxyphenyl)-1H-benzo[d]imidazol-1-yl)acetyl)hydrazono)methyl)phenoxy)acetate], for which the GI50 in [1] was 11.4 µM; in [2], 71.2 µM; in [3] it was > 82.5 µM; in assay [4] it was 17.2 µM; in [5], 9.74 µM; in assay [6], 2.68 µM. Also, the GI50 in assay [7] was determined as 22.2 µM; in assay [8], 14.7 µM; in assay [9], 17.3 µM; in assay [10], 80.9 µM; in [11] it was 4.25 µM; in assay [12] it was 10.7 µM. The GI50 in assay [13] was 12.7 µM; in assay [14], 2.14 µM; in assay [15] it was 6.66 µM; in assay [16], 15.4 µM; in [17], 17.5 µM; in assay [18], 25.6 µM. The GI50 in [19] was 4.45 µM; in assay [20], 19.1 µM; in assay [21], 5.74 µM; in [22], > 82.5 µM.
As for `COC(=O)COc1ccc(C=NNC(=O)Cn2c(-c3ccc(OC)cc3)nc3cc(Cl)c(Cl)cc32)cc1OC` [Compound 10p, Methyl-2-(4-((2-(2-(5,6-dichloro-2-(4-methoxyphenyl)-1H-benzo[d]imidazol-1-yl)acetyl)hydrazono)methyl)-2-methoxyphenoxy)acetate], the GI50 in [1] is 12.5 µM; in assay [2], > 72.5 µM; in [3], > 72.5 µM; in assay [4] it was 23 µM; in [5] it was 8.11 µM; in assay [6] it was 4.47 µM. For the same compound, the GI50 in [7] was > 72.5 µM; in [8] it was > 72.5 µM; in [9] it was > 72.5 µM; in assay [10] it was > 72.5 µM; in [11] it was > 72.5 µM; in assay [12], 7.52 µM. Besides, the GI50 was 14.7 µM in [13]; 1.73 µM in assay [14]; 13.8 µM in assay [15]; 11.6 µM in [16]; > 72.5 µM in [17]; > 72.5 µM in [18]. Further, the GI50 in [19] was 4.38 µM; in assay [20], 16 µM; in assay [21], 2.77 µM; in assay [22], > 72.5 µM.
Consider `COC(=O)COc1cc(C=NNC(=O)Cn2c(-c3ccc(OC)cc3)nc3cc(Cl)c(Cl)cc32)ccc1OC` [Compound 10o, Methyl-2-(5-((2-(2-(5,6-dichloro-2-(4-methoxyphenyl)-1H-benzo[d]imidazol-1-yl)acetyl)hydrazono)methyl)-2-methoxyphenoxy)acetate], for which the GI50 in assay [1] was 23.6 µM; in assay [2], > 100 µM; in [3], > 100 µM; in [4] it was 20.5 µM; in assay [5], 1.82 µM; in assay [6], 12.7 µM. The GI50 in assay [7] was > 100 µM; in assay [8] it was > 100 µM; in [9] it was > 100 µM; in assay [10], > 100 µM; in assay [11], 100 µM; in assay [12], 5.28 µM. Moreover, the GI50 was 38.7 µM in assay [13]; 14.4 µM in assay [14]; 16.1 µM in assay [15]; > 100 µM in assay [16]; > 100 µM in assay [17]; > 100 µM in assay [18]. Also, the GI50 in assay [19] is 17.2 µM; in assay [20], 26 µM; in assay [21] it was 15.3 µM; in [22] it was > 100 µM.
